Measurements as given in US20070098826A1, “Use of pinitol or chiroinositol for protecting the liver” (AMICOGEN, INC., priority 2003, published 2007).

Columns and labels:
[1] = test system: Liver Damaged by Carbon Tetrachloride; test: Protective activity for the liver damaged by carbon tetrachloride (blood GOT and GPT); type: in vivo, Sprague-Dawley rats; details: CCl4 rats; for GOT / GPT: blood on day 8; for GOT Inhibition (%) / GPT Inhibition (%): day 8
Protocol: The rats were divided into 8 groups and carbon tetrachloride was injected subcutaneously into the rats except the rats of the normal group in an amount of 0.5 ml/kg at 1st and 5th day. On day 2, pinitol or chiroinositol dissolved in 10 ml of water was orally administered to the rats of the experimental groups in an amount of 5-20 mg/kg of rat body weight. The normal and control groups were treated with 10 ml of distilled water instead of pinitol. On day 8, GOT and GPT concentrations in the blood sample taken from the orbital vein of each rat was measured by using blood analyzer (Vitros DT-60, Johnson & Johnson) and the result is shown in Table II. The degree of inhibition (%) was then calculated in accordance with the following equation: [formula]

[2] = test system: serum GOT, GPT and γ-GTP levels; test: Protective activity for liver in adults with elevated serum GOT or γ-GTP (serum GOT, GPT, γ-GTP); type: in vivo, human; details: oral 600 mg daily for 2 months
Protocol: Pinitol was orally administered to adults (the average age: 51.8 years, man 7 and female 8) showing serum GOT or γ-GPT level higher than 50 IU/L at a daily dose of 600 mg for 2 months. Serum GOT, GPT and γ-GTP levels were determined before and after the administration.

[3] = test system: glutathione content of liver; test: Content of glutathione in liver of streptozotocin diabetic rats; type: in vivo, Sprague-Dawley rats; details: for Glutathione content as compared to the normal group / Glutathione content Relative value: 10 mg/kg; for Glutathione content (μ mole/g): 10 mg/kg oral everyday for 4 days, liver; for Glutathione content Relative value: normal group = 100
Protocol: In order to induce diabetes in rats, streptozotocin (Sigma Chemical Co., USA) dissolved in 0.01M citrate buffer solution (pH 4.5) was injected into the abdominal cavity of 8 week-old Sprague-Dawley rats in an amount of 45 mg/kg of rat body weight. […] The diabetic rats were divided into 3 groups, each of 12-15 rats, and pinitol or chiroinositol dissolved in 10 ml of water was orally administered to the rats of two groups (experimental groups 1 and 2) in an amount of 10 mg/kg of rat body weight everyday for 4 days. Rats of the normal group and control group (diabetic group) were each treated with 10 ml of distilled water. After fasting during 18 hours, the rats were anesthetized with ethyl ether, sacrificed, the liver was taken and washed with cold physiological saline. The glutathione content of the homogenized liver solution was measured according to the method of Ellman (Arch. Biochem. Biophy., 70-77 (1959)) and the result is shown in Table IV.

[4] = rats, oral, 5,000 mg/kg, day 14
Protocol: 6 week-old, specific pathogen-free Sprague-Dawley female rats (15 heads), each weighing about 130 to 147 g, and male rats (15 heads), each weighing about 110 to 123 g, were bred under the condition of 23±3° C., 55±15% relative humidity and 12 L/12 D photoperiod. Fodder (Harlan, U.S.A.) and water were sterilized and fed to the rats. The rats were acclimated for 1 week before the administration of pinitol.
Pinitol was dissolved in physiological saline and the solution was orally administered to each rat in an amount of 5,000 mg/kg of rat body weight. […] The weight changes of the rats were recorded at day 1, 3, 7 and 14 to examine the effect of pinitol. Further, on day 14, the rats were sacrificed and the internal organs were visually examined.

[5] = test system: SOD activity in liver; test: Determination of SOD activity in liver of carbon tetrachloride treated rats; type: in vivo, Sprague-Dawley rats; details: for SOD activity (U/g Liver): CCl4 i.p., liver 24 hours later; for SOD activity Relative Value (%): control group = 100
Protocol: The rats were divided into 7 groups and pinitol dissolved in 10 ml of water was orally administered to the rats of the experimental groups in an amount of 200-1000 mg/kg of rat body weight everyday for 4 days. The comparative group rats were treated with Silymarin (Sigma Chemical Co.) in an amount of 200 mg/kg, the normal and control groups were each treated with 10 ml of distilled water. On day 4, a mixture of carbon tetrachloride and soybean oil (1:1 (v/v)) was injected intraperitoneally into the rats except the rats of the normal group in an amount of 0.5 ml/kg, 90 minutes after the administration of pinitol. 24 hours thereafter, SOD activity of the liver taken out from each rat was measured according to the method of Neoot et al., (Methods Enzymol., 186: 209-219 (1993)) and tested by student t-test.

SMILES | GOT ([1]; 5 mg/kg oral) [IU/L] | GPT ([1]; 5 mg/kg oral) [IU/L] | GOT Inhibition (%) ([1]; 5 mg/kg oral) | GPT Inhibition (%) ([1]; 5 mg/kg oral) | GOT ([1]; 10 mg/kg oral) [IU/L] | GPT ([1]; 10 mg/kg oral) [IU/L] | GOT Inhibition (%) ([1]; 10 mg/kg oral) | GPT Inhibition (%) ([1]; 10 mg/kg oral) | GOT ([1]; 20 mg/kg oral) [IU/L] | GPT ([1]; 20 mg/kg oral) [IU/L] | GOT Inhibition (%) ([1]; 20 mg/kg oral) | GPT Inhibition (%) ([1]; 20 mg/kg oral) | Glutathione content as compared to the normal group [3] [%] | Glutathione content (μ mole/g) [3] [μ mole/g] | Glutathione content Relative value [3] | also measured
CO[C@H]1[C@H](O)[C@@H](O)[C@@H](O)[C@H](O)[C@@H]1O [Pinitol, pinitol] | 298 ± 28 | 134 ± 7 | 49.7 | 54.6 | 188 ± 22 | 92 ± 5 | 73.4 | 72.9 | 192 ± 17 | 75 ± 4 | 72.6 | 80.3 | 96 | 16.38 ± 2.43 | 95.8 | Serum GOT After administration [2]: 31.4 ± 3.0 IU/L; Serum GPT After administration [2]: 43.2 ± 8.1 IU/L; Serum γ-GTP After administration [2]: 82.6 ± 17.5 IU/L; Serum GOT Degree of decrease (%) ([2]; vs before administration): 45.3%; Serum GPT Degree of decrease (%) ([2]; vs before administration): 51.8%; Serum γ-GTP Degree of decrease (%) ([2]; vs before administration): 41.1%; Autopsy, pathological abnormality of internal organs [4]: did not develop any pathological abnormality; SOD activity lower than that of the control group by ([5]; 200 mg/kg): 7%; SOD activity (U/g Liver) ([5]; 200 mg/kg oral everyday for 4 days): 217 ± 74 U/g Liver; SOD activity Relative Value (%) ([5]; 200 mg/kg): 93%; SOD activity higher than that of the control group by ([5]; 300 mg/kg): 24%; SOD activity (U/g Liver) ([5]; 300 mg/kg oral everyday for 4 days): 289 ± 45 U/g Liver; SOD activity Relative Value (%) ([5]; 300 mg/kg): 124%; Effect on SOD activity in the liver ([5]; 300 mg/kg, p<0.05): raises SOD activity in the liver; SOD activity higher than that of the control group by ([5]; 500 mg/kg): 44%; SOD activity (U/g Liver) ([5]; 500 mg/kg oral everyday for 4 days): 335 ± 52 U/g Liver; SOD activity Relative Value (%) ([5]; 500 mg/kg): 144%; SOD activity higher than that of the control group by ([5]; 1000 mg/kg): 35%; SOD activity (U/g Liver) ([5]; 1000 mg/kg oral everyday for 4 days): 315 ± 38 U/g Liver; SOD activity Relative Value (%) ([5]; 1000 mg/kg): 135%
OC1C(O)C(O)C(O)C(O)C1O (centres unmarked) [chiroinositol] | 321 ± 35 | 156 ± 12 | 44.0 | 45.0 | 205 ± 28 | 80 ± 9 | 69.4 | 78.2 | 174 ± 26 | 88 ± 7 | 76.1 | 74.7 | 85 | 14.52 ± 0.57 | 85.0 | 
